Experimental data as given in patent US11780830B2, “Triazolone derivatives or salts thereof and pharmaceutical compositions comprising the same” (YUHAN CORPORATION, priority 2018, dated 2023).
Structures can show the parent of a compound that is named as a salt.

Experiments:
Format in all cases: biochemical
[1] = molecular target: T1, recombinant human VAP-1 (Homo sapiens, UniProt Q16853); assay: Activity on recombinant human VAP-1, HRP-coupled Amplex Red hydrogen peroxide assay; conditions: substrate 1 mM benzylamine; compound incubated with enzyme at 37° C. for 30 minutes; pH 7.4; read-out: Inhibitory Activity (IC50, nM) human VAP-1
T1 construct: purchased R&D systems
T1 sequence (Q16853 1-763): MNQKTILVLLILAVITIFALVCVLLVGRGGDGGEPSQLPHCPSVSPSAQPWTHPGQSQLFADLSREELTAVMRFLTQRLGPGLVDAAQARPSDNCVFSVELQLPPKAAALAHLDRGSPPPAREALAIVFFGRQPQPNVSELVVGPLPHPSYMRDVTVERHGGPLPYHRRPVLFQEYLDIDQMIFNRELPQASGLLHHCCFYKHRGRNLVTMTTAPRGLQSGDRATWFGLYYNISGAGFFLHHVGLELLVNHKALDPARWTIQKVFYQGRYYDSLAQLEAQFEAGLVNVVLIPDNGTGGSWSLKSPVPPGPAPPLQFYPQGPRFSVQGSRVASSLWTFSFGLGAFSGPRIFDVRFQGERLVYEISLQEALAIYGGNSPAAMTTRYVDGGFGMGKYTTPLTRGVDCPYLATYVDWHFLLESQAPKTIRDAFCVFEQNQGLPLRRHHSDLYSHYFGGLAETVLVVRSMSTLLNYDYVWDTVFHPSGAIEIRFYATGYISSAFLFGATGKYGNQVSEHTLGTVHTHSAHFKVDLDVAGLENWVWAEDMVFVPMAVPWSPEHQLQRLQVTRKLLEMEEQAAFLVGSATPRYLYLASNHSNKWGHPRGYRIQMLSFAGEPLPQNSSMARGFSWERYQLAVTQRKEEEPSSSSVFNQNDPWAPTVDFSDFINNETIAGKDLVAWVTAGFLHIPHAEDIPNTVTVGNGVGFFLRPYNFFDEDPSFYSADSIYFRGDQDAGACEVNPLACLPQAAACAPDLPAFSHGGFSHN
Procedure, shortened: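 Fluorescence of resorufin formed from H2O2 (ex 544 nm, em 590 nm) was tracked for 1-2 h after adding 1 mM benzylamine, 200 uM Amplex Red and 1 U/mL HRP to enzyme pretreated with compound for 30 min at 37 °C. IC50 values derive from four-variable logistic fits.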

[2] = molecular target: T2, recombinant human MAO-A (monoamine oxidase-A) (Homo sapiens, UniProt P21397); assay: Activity on recombinant human MAO-A, method similar to the VAP-1 assay; conditions: substrate 0.5 mM tyramine; read-out: Inhibitory Activity (IC50, nM) MAO-A
T2 construct: purchased Sigma-Aldrich
T2 sequence (P21397 1-527): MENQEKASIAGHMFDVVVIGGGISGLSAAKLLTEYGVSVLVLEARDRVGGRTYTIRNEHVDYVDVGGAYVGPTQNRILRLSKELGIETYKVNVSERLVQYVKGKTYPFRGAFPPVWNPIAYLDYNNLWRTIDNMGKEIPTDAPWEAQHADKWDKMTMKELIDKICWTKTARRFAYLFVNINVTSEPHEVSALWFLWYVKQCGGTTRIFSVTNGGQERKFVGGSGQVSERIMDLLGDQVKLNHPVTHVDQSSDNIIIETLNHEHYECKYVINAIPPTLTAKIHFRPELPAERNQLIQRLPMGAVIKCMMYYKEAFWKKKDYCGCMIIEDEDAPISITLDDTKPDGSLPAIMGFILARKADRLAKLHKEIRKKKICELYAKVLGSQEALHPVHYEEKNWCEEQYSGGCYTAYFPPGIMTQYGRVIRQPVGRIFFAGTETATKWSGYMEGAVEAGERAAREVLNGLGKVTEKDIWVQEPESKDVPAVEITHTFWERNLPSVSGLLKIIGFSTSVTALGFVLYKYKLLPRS
Procedure, shortened: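 Fluorescence (544/590 nm) of resorufin formed from Amplex Red by HRP and enzyme-generated H2O2 was followed over 1-2 h. Substrates were 0.5 mM tyramine for MAO-A and 1 mM benzylamine for MAO-B; compounds were preincubated with enzyme for 30 min at 37° C. IC50 came from four-parameter logistic fitting of signal-rate inhibition.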

[3] = molecular target: T3, recombinant human MAO-B (monoamine oxidase-B) (Homo sapiens, UniProt P27338); assay: Activity on recombinant human MAO-B, method similar to the VAP-1 assay; conditions: substrate 1 mM benzylamine; read-out: Inhibitory Activity (IC50, nM) MAO-B
T3 construct: purchased Sigma-Aldrich
T3 sequence (P27338 1-520): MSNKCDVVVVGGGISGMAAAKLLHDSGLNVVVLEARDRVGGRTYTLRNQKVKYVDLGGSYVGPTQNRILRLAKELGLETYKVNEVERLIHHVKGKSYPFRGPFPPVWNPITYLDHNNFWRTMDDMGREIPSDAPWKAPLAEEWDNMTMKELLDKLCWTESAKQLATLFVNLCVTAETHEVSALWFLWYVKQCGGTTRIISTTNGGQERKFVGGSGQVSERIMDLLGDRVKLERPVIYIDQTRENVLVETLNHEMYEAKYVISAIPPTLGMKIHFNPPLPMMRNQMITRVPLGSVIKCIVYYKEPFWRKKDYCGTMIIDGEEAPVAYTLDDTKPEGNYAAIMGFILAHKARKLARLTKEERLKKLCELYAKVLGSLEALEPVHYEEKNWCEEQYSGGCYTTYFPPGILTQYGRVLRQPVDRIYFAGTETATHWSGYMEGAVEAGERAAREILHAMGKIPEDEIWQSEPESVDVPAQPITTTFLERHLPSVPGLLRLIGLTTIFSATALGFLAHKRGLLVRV
Procedure: The compounds according to the present technology were evaluated in terms of activity on recombinant human VAP-1 (R&D systems) by measuring the level of hydrogen peroxide in horseradish peroxidase (HRP)-coupled reaction using Amplex Red Hydrogen Peroxide Assay Kit (Molecular Probes, Invitrogen, USA). The experiment was carried out at room temperature using benzylamine as a substrate. In the HRP-coupled reaction, hydrogen peroxide oxidation of 10-acetyl-3,7-dihydroxyphenoxazine (Amplex Red reagent) produces resorufin, which is a highly fluorescent compound. Briefly, the test compound was dissolved in dimethyl sulfoxide (DMSO) at a concentration of 20 mM. The dose-response assessment was made by 1:3 serial dilution in DMSO, thereby creating an 8 point curve. The concentration of the upper part was controlled according to the efficacy of the compounds, followed by dilution with a reaction buffer solution to obtain a final DMSO concentration less than 1%. To each well of a 96 black well plate, human VAP-1 purified in 50 mM sodium phosphate buffer solution (pH7.4) was added. The test compounds dissolved in DMSO were incubated with the human VAP-1 enzymes at 37° C. for 30 minutes. After 30-minute incubation, each well is added with a reaction mixture containing 200 uM Amplex Red reagent prepared from 50 mM sodium phosphate buffer solution (pH 7.4), 1 mM benzylamine, and 1 U/mL HRP. Fluorescence intensity was measured at several time points during 1-2 hours using a microplate reader (Flexstation3, Molecular Devices) under the wavelength condition exciting at 544 nm and reading the emission at 590 nm. The inhibitory effect of the compounds was measured as a decrease (%) in the signal rate as compared to the control group without any inhibitor (only diluted DMSO). Data was fixed to a logistic model with four variables and IC50 value was calculated using GraphPad Prism program.
In addition, the compounds according to the present technology were evaluated in terms of activity on a recombinant human MAO-A (monoamine oxidase-A, Sigma-Aldrich) and a recombinant human MAO-B (monoamine oxidase-B, Sigma-Aldrich) by using as substrates, 0.5 mM tyramine and 1 mM benzylamine, respectively, with a method similar to the activity evaluation method for recombinant human VAP-1. The compounds according to the present technology were also evaluated in terms of activity on a recombinant human DAO (diamine oxidase, R&D systems) by using as a substrate 1 mM putrescine with a method similar to the activity evaluation method for recombinant human VAP-1.

[4] = molecular target: T4, recombinant human DAO (diamine oxidase) (Homo sapiens, UniProt P19801); assay: Activity on recombinant human DAO, method similar to the VAP-1 assay; conditions: substrate 1 mM putrescine; read-out: Inhibitory Activity (IC50, nM) DAO
T4 construct: purchased R&D systems
T4 sequence (P19801 20-751): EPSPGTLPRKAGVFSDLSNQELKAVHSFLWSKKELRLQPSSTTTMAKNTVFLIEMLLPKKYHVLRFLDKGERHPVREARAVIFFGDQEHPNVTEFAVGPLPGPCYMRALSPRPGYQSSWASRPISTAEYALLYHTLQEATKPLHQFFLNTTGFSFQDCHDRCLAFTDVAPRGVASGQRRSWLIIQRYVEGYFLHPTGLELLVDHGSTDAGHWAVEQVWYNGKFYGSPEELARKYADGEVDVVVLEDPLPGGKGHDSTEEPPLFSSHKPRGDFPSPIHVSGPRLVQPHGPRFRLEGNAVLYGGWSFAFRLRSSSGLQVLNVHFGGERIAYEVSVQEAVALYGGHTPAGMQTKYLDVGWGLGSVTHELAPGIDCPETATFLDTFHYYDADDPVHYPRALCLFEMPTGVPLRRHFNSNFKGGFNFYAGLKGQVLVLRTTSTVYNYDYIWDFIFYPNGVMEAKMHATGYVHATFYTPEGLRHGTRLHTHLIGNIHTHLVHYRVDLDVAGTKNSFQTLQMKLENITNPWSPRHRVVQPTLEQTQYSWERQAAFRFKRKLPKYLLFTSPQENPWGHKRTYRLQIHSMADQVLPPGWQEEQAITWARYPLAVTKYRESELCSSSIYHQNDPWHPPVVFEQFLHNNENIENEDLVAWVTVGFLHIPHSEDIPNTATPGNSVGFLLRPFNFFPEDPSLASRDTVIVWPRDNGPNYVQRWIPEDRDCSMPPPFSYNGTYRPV
Procedure, shortened: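 Inhibition of recombinant human diamine oxidase (DAO, R&D systems) was assessed by the same approach as the VAP-1 assay, using 1 mM putrescine as substrate. Hydrogen peroxide formed was detected through an HRP-coupled Amplex Red reaction yielding fluorescent resorufin, read at 544 nm excitation and 590 nm emission. IC50 values came from four-parameter logistic fitting in GraphPad Prism.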

Structure (SMILES)	IC50 [1]	IC50 [2]	IC50 [3]	IC50 [4]
COCCOc1ccc(-c2ccc(Cn3cnn(C/C(=C/F)CN)c3=O)s2)cc1 [Example 19, 2-[(2E)-2-(aminomethyl)-3-fluoroprop-2-en-1-yl]-4-(5-[4-(2-methoxyethoxy)phenyl]thiophen-2-ylmethyl)-2,4-dihydro-3H-1,2,4-triazol-3-one hydrochloride]	4.6 nM	> 100000 nM	1100 nM	1800 nM
NC/C(=C\F)Cn1ncn(Cc2ccc(-c3ccc(N4CCCC4)cc3)s2)c1=O [Example 20, 2-[(2E)-2-(aminomethyl)-3-fluoroprop-2-en-1-yl]-4-(5-[4-(pyrrolidin-1-yl)phenyl]thiophen-2-ylmethyl)-2,4-dihydro-3H-1,2,4-triazol-3-one hydrochloride]	5 nM	6600 nM	730 nM	2700 nM
NC/C(=C\F)Cn1ncn(Cc2ccc(-c3ccc(N4CCCC4=O)cc3)s2)c1=O [Example 21, 2-[(2E)-2-(aminomethyl)-3-fluoroprop-2-en-1-yl]-4-(5-[4-(2-oxopyrrolidin-1-yl)phenyl]thiophen-2-ylmethyl)-2,4-dihydro-3H-1,2,4-triazol-3-one hydrochloride]	2 nM	> 100000 nM	3000 nM	1300 nM
NC/C(=C\F)Cn1ncn(Cc2ccc(-c3ccc(N4CCNCC4)cc3)s2)c1=O [Example 22, 2-[(2E)-2-(aminomethyl)-3-fluoroprop-2-en-1-yl]-4-(5-[4-(piperazin-1-yl)phenyl]thiophen-2-ylmethyl)-2,4-dihydro-3H-1,2,4-triazol-3-one hydrochloride]	6.4 nM	> 100000 nM	2600 nM	2400 nM
NC/C(=C\F)Cn1ncn(Cc2ccc(-c3cccc(N4CCNCC4)c3)s2)c1=O [Example 23, 2-[(2E)-2-(aminomethyl)-3-fluoroprop-2-en-1-yl]-4-(5-[3-(piperazin-1-yl)phenyl]thiophen-2-ylmethyl)-2,4-dihydro-3H-1,2,4-triazol-3-one hydrochloride]	2.5 nM	> 100000 nM	300 nM	3200 nM
CC(=O)N1CCN(c2ccc(-c3ccc(Cn4cnn(C/C(=C/F)CN)c4=O)s3)cc2)CC1 [Example 24, 4-(5-[4-(4-acetylpiperazin-1-yl)phenyl]thiophen-2-ylmethyl)-2-[(2E)-2-(aminomethyl)-3-fluoroprop-2-en-1-yl]-2,4-dihydro-3H-1,2,4-triazol-3-one hydrochloride]	1.4 nM	21000 nM	> 10000 nM	670 nM
NC/C(=C\F)Cn1ncn(Cc2ccc(-c3ccc(C4CCOCC4)cc3)s2)c1=O [Example 25, 2-[(2E)-2-(aminomethyl)-3-fluoroprop-2-en-1-yl]-4-(5-[4-(tetrahydro-2H-pyran-4-yl)phenyl]thiophen-2-ylmethyl)-2,4-dihydro-3H-1,2,4-triazol-3-one hydrochloride]	3.1 nM	> 100000 nM	1300 nM	690 nM
NC/C(=C\F)Cn1ncn(Cc2ccc(-c3ccc(C(=O)N4CCOCC4)cc3)s2)c1=O [Example 27, 2-[(2E)-2-(aminomethyl)-3-fluoroprop-2-en-1-yl]-4-(5-[4-(morpholin-4-ylcarbonyl)phenyl]thiophen-2-ylmethyl)-2,4-dihydro-3H-1,2,4-triazol-3-one hydrochloride]	1.1 nM	> 100000 nM	18000 nM	470 nM
